Test results: US20240400553A1, “AMINE BASED MATRIPTASE 2 INHIBITORS AND USES THEREOF” (Disc Medicine, Inc., priority 2023, published 2024)
Where two headings read alike, the source gives them in different places.

Molecular target: T1, Human Recombinant Matriptase 2 (Homo sapiens, UniProt Q8IU80)
T1 construct: made in house
T1 sequence (Q8IU80 1-811): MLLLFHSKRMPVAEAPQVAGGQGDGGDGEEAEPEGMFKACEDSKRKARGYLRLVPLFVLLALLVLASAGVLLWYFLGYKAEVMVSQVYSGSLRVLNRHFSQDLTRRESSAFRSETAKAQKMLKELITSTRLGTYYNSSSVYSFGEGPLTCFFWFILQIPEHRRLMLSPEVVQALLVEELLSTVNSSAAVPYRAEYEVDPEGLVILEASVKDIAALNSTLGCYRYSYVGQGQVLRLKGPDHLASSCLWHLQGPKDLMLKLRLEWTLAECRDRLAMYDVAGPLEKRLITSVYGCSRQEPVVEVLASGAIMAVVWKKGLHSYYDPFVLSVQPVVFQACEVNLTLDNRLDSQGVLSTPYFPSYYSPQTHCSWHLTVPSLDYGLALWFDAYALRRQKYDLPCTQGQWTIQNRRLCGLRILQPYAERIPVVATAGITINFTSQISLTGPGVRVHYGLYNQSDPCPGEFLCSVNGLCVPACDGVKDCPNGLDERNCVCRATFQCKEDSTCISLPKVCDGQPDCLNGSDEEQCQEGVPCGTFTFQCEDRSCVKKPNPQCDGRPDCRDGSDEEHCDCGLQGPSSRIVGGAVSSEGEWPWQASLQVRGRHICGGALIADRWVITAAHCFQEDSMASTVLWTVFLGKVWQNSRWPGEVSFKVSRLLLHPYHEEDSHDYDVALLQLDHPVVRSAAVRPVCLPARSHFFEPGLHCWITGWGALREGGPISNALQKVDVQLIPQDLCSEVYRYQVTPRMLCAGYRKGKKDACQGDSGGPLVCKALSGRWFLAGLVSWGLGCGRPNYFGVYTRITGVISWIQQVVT
Experiment: Matriptase 2 inhibition, fluorescence based assay (Method I)
Assay type: biochemical
In short: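 In-house recombinant enzyme (3.5 nM), preincubated 30 min with compound, then Boc-Gln-Ala-Arg-AMC substrate (62 μM) in 50 mM Tris pH 7.5, 150 mM NaCl, 0.01% gelatin, 1% DMSO, 25 °C. Fluorescence (Ex 360/Em 480 nm) read 60 min after substrate; IC50 from variable-slope sigmoidal fit of % inhibition.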

[1] = Table B, Human Recombinant Matriptase 2, 3.5 nM enzyme, 62 μM substrate, 30 mins preincubation, read-out: Mean Ki
[2] = Table A, Ki of Matriptase-2, read-out: Mat-2 Ki

Structure (SMILES)	Ki [1] [nM]	Ki [2] [nM]
CN1CCC(COC(=O)c2cc3ccc(CN)nc3n2Cc2cc(NS(=O)(=O)CC[C@@H]3CCCN3)cc3ccccc23)CC1 [Compound 2]	–	500 to 3000
CNC(=O)c1cc2ccc(CN)nc2n1Cc1cc(NS(=O)(=O)CC[C@@H]2CCCN2)cc2ccccc12 [Compound 3]	–	100 to 500
NCc1ccc2cc(C(=O)O)n(Cc3cc(NS(=O)(=O)Cc4ccsc4)cc4ccccc34)c2n1 [Compound 4]	–	≤ 100
CN1CCC(COC(=O)c2cc3ccc(CN)nc3n2Cc2cc(NS(=O)(=O)Cc3ccsc3)cc3ccccc23)CC1 [Compound 5]	–	≤ 100
CN1CCC(CNC(=O)c2cc3ccc(CN)nc3n2Cc2cc(NS(=O)(=O)Cc3ccsc3)cc3ccccc23)CC1 [Compound 6, 6-(aminomethyl)-N-((1-methylpiperidin-4-yl)methyl)-1-((3-((thiophen-3-ylmethyl)sulfonamido)naphthalen-1-yl)methyl)-1H-pyrrolo[2,3-b]pyridine-2-carboxamide]	–	≤ 100
NCc1ccc2cc(C(=O)OCCCCN3CCOCC3)n(Cc3cc(NS(=O)(=O)Cc4ccccc4)cc4ccccc34)c2n1 [Compound 7, 4-morpholinobutyl 6-(aminomethyl)-1-((3-((phenylmethyl)sulfonamido)naphthalen-1-yl)methyl)-1H-pyrrolo[2,3-b]pyridine-2-carboxylate]	–	≤ 100
NCc1ccc2cc(C(=O)OCC3CCNCC3)n(Cc3cc(NS(=O)(=O)Cc4ccccc4)cc4ccccc34)c2n1 [Compound 9, (piperidin-4-yl)methyl 6-(aminomethyl)-1-{[3-(phenylmethanesulfon-amido)naphthalen-1-yl]-methyl}-1H-pyrrolo[2,3-b]pyridine-2-carboxylate]	–	≤ 100
CN1CCC(C)(COC(=O)c2cc3ccc(CN)nc3n2Cc2cc(NS(=O)(=O)Cc3ccccc3)cc3ccccc23)CC1 [Compound 10, (1,4-dimethylpiperidin-4-yl)methyl 6-(amino-methyl)-1-{[3-(phenyl-methanesulfonamido)-naphthalen-1-yl]meth-yl}-1H-pyrrolo[2,3-b]-pyridine-2-carboxylate]	–	≤ 100
CN1CCC(CNC(=O)c2cc3ccc(CN)nc3n2Cc2cc(NS(=O)(=O)Cc3ccccc3)cc3ccccc23)CC1 [Compound 12, 6-(aminomethyl)-N-[(1-methylpiperidin-4-yl)-methyl]-1-{[3-(phenyl-methanesulfonamido)-naphthalen-1-yl]meth-yl}-1H-pyrrolo[2,3-b]-pyridine-2-carboxamide]	–	≤ 100
CCN1CCC(COC(=O)c2cc3ccc(CN)nc3n2Cc2cc(NS(=O)(=O)Cc3ccccc3)cc3ccccc23)CC1 [Compound 13, (1-ethylpiperidin-4-yl)-methyl 6-(aminomethyl)-1-{[3-(phenylmethane-sulfonamido)naphthalen-1-yl]methyl}-1H-pyr-rolo[2,3-b]pyridine-2-carboxylate]	–	≤ 100
CC(C)N1CCC(CNC(=O)c2cc3ccc(CN)nc3n2Cc2cc(NS(=O)(=O)Cc3ccccc3)cc3ccccc23)CC1 [Compound 14, 6-(aminomethyl)-1-{[3-(phenylmethanesulfon-amido)naphthalen-1-yl]-methyl}-N-{[1-(propan-2-yl)piperidin-4-yl]-methyl}-1H-pyrrolo-[2,3-b]pyridine-2-car-boxamide]	–	≤ 100
CC(C)N1CCC(COC(=O)c2cc3ccc(CN)nc3n2Cc2cc(NS(=O)(=O)Cc3ccccc3)cc3ccccc23)CC1 [Compound 15]	–	≤ 100
CC(C)N1CCC(OC(=O)c2cc3ccc(CN)nc3n2Cc2cc(NS(=O)(=O)Cc3ccccc3)cc3ccccc23)CC1 [Compound 16, 1-(propan-2-yl)piperidin-4-yl 6-(aminomethyl)-1-{[3-(phenylmethane-sulfonamido)naphthalen-1-yl]methyl}-1H-pyr-rolo[2,3-b]pyridine-2-carboxylate]	–	≤ 100
CN1CCC(COC(=O)c2cc3ccc(CN)nc3n2Cc2cc(NS(=O)(=O)Cc3ccccc3)cc3ccccc23)CC1 [Compound 17, (1-methylpiperidin-4-yl)methyl 6-(amino-methyl)-1-{[3-(phenyl-methanesulfonamido)-naphthalen-1-yl]methyl}-1H-pyrrolo[2,3-b]pyr-idine-2-carboxylate]	–	≤ 100
CN1CCC(OC(=O)c2cc3ccc(CN)nc3n2Cc2cc(NS(=O)(=O)Cc3ccccc3)cc3ccccc23)CC1 [Compound 18, 1-methylpiperidin-4-yl 6-(aminomethyl)-1-{[3-(phenylmethanesulfon-amido)naphthalen-1-yl]-methyl}-1H-pyrrolo[2,3-b]pyridine-2-carboxylate]	–	≤ 100
NCc1ccc2cc(C(=O)OCC34CCN(CC3)CC4)n(Cc3cc(NS(=O)(=O)Cc4ccccc4)cc4ccccc34)c2n1 [Compound 19, {1-azabicyclo[2.2.2]-octan-4-yl}methyl 6-(aminomethyl)-1-{[3-(phenylmethanesulfon-amido)naphthalen-1-yl]-methyl}-1H-pyrrolo[2,3-b]pyridine-2-carboxylate]	–	≤ 100
Cn1cncc1COC(=O)c1cc2ccc(CN)nc2n1Cc1cc(NS(=O)(=O)Cc2ccccc2)cc2ccccc12 [Compound 20, (1-methyl-1H-imidazol-5-yl)methyl 6-(amino-methyl)-1-{[3-(phenyl-methanesulfonamido)-naphthalen-1-yl]methyl}-1H-pyrrolo[2,3-b]pyr-idine-2-carboxylate]	–	≤ 100
NCc1ccc2cc(C(=O)OCC3CCN(CC4CC4)CC3)n(Cc3cc(NS(=O)(=O)Cc4ccccc4)cc4ccccc34)c2n1 [Compound 21, [1-(cyclopropylmeth-yl)piperidin-4-yl]methyl 6-(aminomethyl)-1-{[3-(phenylmethanesulfon-amido)naphthalen-1-yl]-methyl}-1H-pyrrolo[2,3-b]pyridine-2-carboxylate]	–	≤ 100
NCc1ccc2cc(C(=O)OC[C@H]3COCCN3)n(Cc3cc(NS(=O)(=O)Cc4ccccc4)cc4ccccc34)c2n1 [Compound 22, [(3R)-morpholin-3-yl]-methyl 6-(aminomethyl)-1-{[3-(phenylmethane-sulfonamido)naphthalen-1-yl]methyl}-1H-pyr-rolo[2,3-b]pyridine-2-carboxylate]	–	≤ 100
CN(C)CCCCOC(=O)c1cc2ccc(CN)nc2n1Cc1cc(NS(=O)(=O)Cc2ccccc2)cc2ccccc12 [Compound 25, 4-(dimethylamino)butyl 6-(aminomethyl)-1-{[3-(phenylmethanesulfon-amido)naphthalen-1-yl]-methyl}-1H-pyrrolo[2,3-b]pyridine-2-carboxylate]	–	≤ 100

Continued, values first:

Ki [1] [nM]	Ki [2] [nM]	Structure (SMILES)
≤ 100	–	CNC12CC(COC(=O)c3cc4ccc(CN)nc4n3Cc3cc(NS(=O)(=O)Cc4c(C)cccc4C)cc4ccccc34)(C1)C2 [Compound 2.34]
100 to 500	–	NCc1ccc2cc(C(=O)Nc3ccc(N)cc3)n(Cc3cc(NS(=O)(=O)Cc4ccccc4)cc4ccccc34)c2n1 [Compound 2.35]
100 to 500	–	CN(C)c1ccc(NC(=O)c2cc3ccc(CN)nc3n2Cc2cc(NS(=O)(=O)Cc3ccccc3)cc3ccccc23)cc1 [Compound 2.36]
> 3000	–	CN1CCC(COC(=O)c2cc3ccc(CN)nc3n2CC(NS(=O)(=O)Cc2ccccc2)c2ccccc2)CC1 (stereo not shown) [Compound 2.37]
≤ 100	–	CNC12CC(COC(=O)c3cc4ccc(CN)nc4n3Cc3cc(NS(=O)(=O)Cc4c(C)cccc4C)cc4c3CCCC4)(C1)C2 [Compound 2.38]
> 3000	–	CN1CCC(COC(=O)c2cc3ccc(CN)nc3n2Cc2cccn3ccnc23)CC1 [Compound 2.39]
≤ 100	–	CN(C)C12CC(COC(=O)c3cc4ccc(CN)nc4n3Cc3cc(NS(=O)(=O)Cc4ccccc4)cc4ccccc34)(C1)C2 [Compound 2.40]
≤ 100	–	CNC12CC(COC(=O)c3cc4ccc(CN)nc4n3Cc3cc(NS(=O)(=O)Cc4ccccc4)cc4ccccc34)(C1)C2 [Compound 2.41]
100 to 500	–	Cc1cccc(C)c1CS(=O)(=O)Nc1cc2c(c(Cn3c(C(=O)OCc4cncn4C(C)(C)C)cc4ccc(CN)nc43)c1)CCCC2 [Compound 2.42]
≤ 100	–	Cc1cccc(C)c1CS(=O)(=O)Nc1cc2c(c(Cn3c(C(=O)OCC4CCN(C)CC4)cc4ccc(CN)nc43)c1)CCCC2 [Compound 2.43]
100 to 500	–	Cc1cccc(C)c1CS(=O)(=O)Nc1cc2c(c(Cn3c(C(=O)OCc4nccn4C)cc4ccc(CN)nc43)c1)CCCC2 [Compound 2.44]
> 3000	–	CN1CCC(COC(=O)c2cc3ccc(CN)nc3n2Cc2cc(NS(=O)(=O)Cc3ccccc3)cs2)CC1 [Compound 2.45]
> 3000	–	CN1CCC(COC(=O)c2cc3ccc(CN)nc3n2Cc2cccc3cnccc23)CC1 [Compound 2.46]
100 to 500	–	CN1CCC(COC(=O)c2cc3ccc(CN)nc3n2Cc2cccc(NS(=O)(=O)Cc3ccccc3)c2)CC1 [Compound 2.48]
